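Growth conditions: 96-well plates. Treatment: test compound, 48 hours, 5 concentrations. Analysis: linear interpolation between bracketing concentrations; unreached endpoints set to highest concentration. The concentration for 50% growth inhibition is given as GI50.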 Calls of active or inactive are those of the source. Rule as the data show it: active = GI50 up to about 1.1 µM and inactive = higher.

Some test systems named below: NCI-H23; Malme-3M; ACHN; OVCAR-4; HCT-116; OVCAR-5; PC-3; UACC-257; SNB-19; MDA-MB-435; MOLT-4; RPMI-8226; OVCAR-3; CAKI-1; NCI/ADR-RES; TK-10; MCF7; SK-MEL-2; NCI-H522; A498.
Experiment in all cases: growth of human tumour cells (NCI), 48 h

As for `O=C(Nc1ccccc1)OCCN=c1c2ccccc2ccc2ccccc12`, the GI50 was 35.1 µM (inactive) with NCI-H23; 18.7 µM (inactive) in the assay on Malme-3M; 20.9 µM (inactive) in the assay with ACHN; 25.8 µM (inactive) in the assay with OVCAR-4; 16.9 µM (inactive) in the assay on HCT-116; 41.5 µM (inactive) in the assay on OVCAR-5. The GI50 with PC-3 is 20.9 µM (inactive); in the assay with UACC-257 it was 15.8 µM (inactive); with SNB-19, 15.9 µM (inactive); in the assay on MDA-MB-435, 27.6 µM (inactive); in the assay on MOLT-4, 15.7 µM (inactive); with RPMI-8226 it was 15.5 µM (inactive). In addition, the GI50 was 17.5 µM (inactive) with OVCAR-3; 26.4 µM (inactive) in the assay with CAKI-1; 21.3 µM (inactive) in the assay with NCI/ADR-RES; 31.4 µM (inactive) in the assay with TK-10; > 10 µM (inactive) with MCF7; 11.3 µM (inactive) in the assay with SK-MEL-2.

Take `Cc1cc(O)c2c(c1)C(C1c3cccc(O)c3C(=O)c3c(O)cc(C)cc31)c1cccc(O)c1C2=O` (stereo unspecified): the GI50 is 0.37 µM (active) in the assay on NCI-H23; 0.329 µM (active) with Malme-3M; 0.337 µM (active) in the assay with ACHN; 0.26 µM (active) in the assay on OVCAR-4; 0.314 µM (active) in the assay with HCT-116; 0.766 µM (active) in the assay with OVCAR-5. The GI50 in the assay with PC-3 is 0.105 µM (active); in the assay with UACC-257, 0.3 µM (active); in the assay on SNB-19 it was 0.239 µM (active); in the assay on MDA-MB-435 it was 0.34 µM (active); in the assay with MOLT-4, 0.615 µM (active); in the assay with RPMI-8226 it was 0.158 µM (active). The GI50 with OVCAR-3 is 0.25 µM (active); with CAKI-1, 2.86 µM (inactive); in the assay on NCI/ADR-RES, 0.319 µM (active); with NCI-H522, 0.417 µM (active); with TK-10, 0.598 µM (active); in the assay on MCF7, 0.331 µM (active). Besides, the GI50 in the assay on SK-MEL-2 was 0.294 µM (active).

Take `Cc1cn(CCCCOC(=O)NC(CCCNC(=N)N)C(=O)O)c(=O)[nH]c1=O` (stereo unspecified): the GI50 in the assay with NCI-H23, in the assay with ACHN, in the assay on OVCAR-4, in the assay on A498, with HCT-116 and in the assay on OVCAR-5 was > 100 µM (inactive) throughout. The GI50 with PC-3, in the assay on UACC-257, with SNB-19, in the assay with MDA-MB-435, in the assay on MOLT-4 and in the assay on RPMI-8226 was > 100 µM (inactive) each time. Besides, the GI50 with OVCAR-3, in the assay with CAKI-1, with NCI/ADR-RES, in the assay with TK-10, in the assay with MCF7 and in the assay with SK-MEL-2 was > 100 µM (inactive) throughout.

`O=C(Nc1ccc2ncccc2c1)c1cc2c(cc1Cl)Sc1nccn1S2(=O)=O`: the GI50 in the assay with NCI-H23 was 15.6 µM (inactive); in the assay with Malme-3M it was 16.7 µM (inactive); in the assay on ACHN it was 31.2 µM (inactive); in the assay with OVCAR-4, 26.2 µM (inactive); in the assay with HCT-116, 12.8 µM (inactive); with OVCAR-5 it was 20.9 µM (inactive). Further, the GI50 in the assay with PC-3 was 33.6 µM (inactive); in the assay with UACC-257, 20.1 µM (inactive); in the assay with SNB-19 it was 16.4 µM (inactive); in the assay on MDA-MB-435, 4 µM (inactive); with MOLT-4, 18.4 µM (inactive); with RPMI-8226, 6.85 µM (inactive). The GI50 in the assay with OVCAR-3 is 21.7 µM (inactive); in the assay on CAKI-1, 22 µM (inactive); in the assay with NCI/ADR-RES, 19 µM (inactive); in the assay on NCI-H522 it was 8.97 µM (inactive); in the assay on TK-10, 20.4 µM (inactive); in the assay on MCF7, 6.12 µM (inactive). The GI50 in the assay with SK-MEL-2 was 17.3 µM (inactive).

For `O=C(O)c1nc(-c2ccccn2)c(-c2ccccn2)nc1C(=O)O`, the GI50 in the assay with NCI-H23 was 5.3 µM (inactive); in the assay on Malme-3M it was 1.66 µM (inactive); in the assay on ACHN, 0.678 µM (active); in the assay on OVCAR-4 it was 2 µM (inactive); with A498, 1.61 µM (inactive); in the assay on HCT-116, 1.67 µM (inactive). Further, the GI50 was 3.01 µM (inactive) in the assay with OVCAR-5; 4.47 µM (inactive) with PC-3; 4.35 µM (inactive) in the assay on UACC-257; 5.04 µM (inactive) in the assay with SNB-19; 3.62 µM (inactive) with MDA-MB-435; 2.3 µM (inactive) in the assay on MOLT-4. For the same compound, the GI50 in the assay on RPMI-8226 was 2.86 µM (inactive); in the assay on OVCAR-3, 2.87 µM (inactive); with CAKI-1, 2.92 µM (inactive); in the assay on NCI/ADR-RES, 2.75 µM (inactive); with NCI-H522 it was 4.28 µM (inactive); in the assay with TK-10, 3.48 µM (inactive). For the same compound, the GI50 in the assay with SK-MEL-2 was 4.95 µM (inactive).

As to `O=C1c2cccc3cc([N+](=O)[O-])cc(c23)C(=O)N1O`, the GI50 with NCI-H23 was 30.8 µM (inactive); with Malme-3M it was 28.4 µM (inactive); with ACHN, 28.1 µM (inactive); in the assay on OVCAR-4, 34.1 µM (inactive); in the assay on HCT-116, 27 µM (inactive); with OVCAR-5 it was 44.1 µM (inactive). Also, the GI50 in the assay on PC-3 was 43.5 µM (inactive); with UACC-257 it was 33.7 µM (inactive); with SNB-19, 43.9 µM (inactive); with MDA-MB-435, 34.3 µM (inactive); with MOLT-4, 28.1 µM (inactive); in the assay on RPMI-8226, 19.4 µM (inactive). The GI50 was 28.9 µM (inactive) with OVCAR-3; 31.7 µM (inactive) in the assay with CAKI-1; 40.8 µM (inactive) in the assay with NCI/ADR-RES; 58.7 µM (inactive) in the assay on NCI-H522; 25.9 µM (inactive) in the assay on TK-10; 24.8 µM (inactive) in the assay on MCF7. Further, in the assay on SK-MEL-2, the GI50 was 32.4 µM (inactive).

`CS(=O)(=O)OCCCSCCSCCCOS(C)(=O)=O`: the GI50 in the assay with NCI-H23, with OVCAR-4, in the assay on HCT-116, in the assay with OVCAR-5, in the assay with PC-3 and with UACC-257 was > 100 µM (inactive) each time. Also, the GI50 in the assay with SNB-19, with MDA-MB-435, with MOLT-4, with OVCAR-3, with NCI/ADR-RES and in the assay with NCI-H522 was > 100 µM (inactive) in each case. Also, the GI50 in the assay with TK-10 and in the assay with MCF7 was > 100 µM (inactive) in each case.

Regarding `COC(=O)c1c(C)cccc1C1CN=NC12Cc1cc(C)c(C)cc1C2=O` (stereo unspecified), the GI50 with NCI-H23 was 29.9 µM (inactive); in the assay with Malme-3M, 57.8 µM (inactive); in the assay on ACHN it was 57.4 µM (inactive); with OVCAR-4 it was 52 µM (inactive); in the assay on HCT-116, 34.8 µM (inactive); in the assay on OVCAR-5 it was > 100 µM (inactive). The GI50 in the assay on PC-3 is 34.7 µM (inactive); in the assay with UACC-257, 27.2 µM (inactive); in the assay on SNB-19 it was 44.5 µM (inactive); with MDA-MB-435 it was 27.9 µM (inactive); in the assay with MOLT-4 it was 33.9 µM (inactive); with OVCAR-3 it was 62.4 µM (inactive). The GI50 was 73.1 µM (inactive) in the assay with CAKI-1; 27.4 µM (inactive) with NCI/ADR-RES; 19.2 µM (inactive) in the assay on NCI-H522; 51.4 µM (inactive) with TK-10; 33.6 µM (inactive) in the assay on MCF7; 31 µM (inactive) with SK-MEL-2.

Consider `Cn1/c(=N\N=C(\CNCCO)[C@@H](O)[C@@H]2OC(c3ccccc3)OC[C@H]2O)sc2ccccc21` (stereo partly specified), for which the GI50 in the assay with NCI-H23 was 20 µM (inactive); in the assay with Malme-3M it was 17.7 µM (inactive); in the assay with ACHN it was 19.9 µM (inactive); with OVCAR-4, 23.9 µM (inactive); with HCT-116 it was 16 µM (inactive); in the assay on OVCAR-5, 18.2 µM (inactive). The GI50 with PC-3 is 16.6 µM (inactive); in the assay with UACC-257, 19.6 µM (inactive); in the assay on SNB-19, 12.8 µM (inactive); with MDA-MB-435, 17.9 µM (inactive); with MOLT-4 it was 14.9 µM (inactive); with OVCAR-3, 16.4 µM (inactive). In addition, the GI50 in the assay on CAKI-1 is 15.6 µM (inactive); in the assay on NCI/ADR-RES, 50.7 µM (inactive); in the assay with NCI-H522, 17.6 µM (inactive); in the assay on TK-10, 18.5 µM (inactive); in the assay with MCF7, 16.7 µM (inactive); with SK-MEL-2, 17.7 µM (inactive).

As to `Cc1cn(C(=O)NC23CC4CC(CC(C4)C2)C3)c(=O)[nH]c1=O`, the GI50 in the assay on NCI-H23 is 32.1 µM (inactive); in the assay on Malme-3M, 44.7 µM (inactive); with ACHN it was 27.9 µM (inactive); in the assay with OVCAR-4, 38.7 µM (inactive); with HCT-116, 34.4 µM (inactive); in the assay with OVCAR-5, > 100 µM (inactive). Also, the GI50 in the assay with PC-3 was 35 µM (inactive); in the assay with UACC-257 it was 45.1 µM (inactive); in the assay on SNB-19 it was 71.1 µM (inactive); in the assay on MDA-MB-435, 61.4 µM (inactive); in the assay on MOLT-4, 41.5 µM (inactive); in the assay on RPMI-8226, 25.5 µM (inactive). Besides, the GI50 with OVCAR-3 is 88.3 µM (inactive); in the assay on CAKI-1, 32.2 µM (inactive); with NCI/ADR-RES, 27.4 µM (inactive); in the assay on TK-10 it was 32.8 µM (inactive); in the assay with MCF7 it was 31.6 µM (inactive); in the assay on SK-MEL-2, 19.9 µM (inactive).

As for `C[C@H]1[C@H](C)CC[C@]2(C)CC[C@]3(C)C(=C[C@@H](O)[C@@H]4[C@@]5(C)[C@H](O)[C@@H](O)[C@H](O)C(C)(C)[C@@H]5CC[C@]43C)[C@H]12`, the GI50 with NCI-H23, with ACHN, in the assay with A498, in the assay with HCT-116, in the assay on OVCAR-5 and in the assay on PC-3 was > 100 µM (inactive) in each case. The GI50 is > 100 µM (inactive) with UACC-257; > 100 µM (inactive) in the assay with SNB-19; > 100 µM (inactive) in the assay with MDA-MB-435; 82.4 µM (inactive) with MOLT-4; 55.6 µM (inactive) in the assay with RPMI-8226; 77.1 µM (inactive) in the assay on OVCAR-3. Besides, the GI50 in the assay with CAKI-1, in the assay on NCI/ADR-RES, with MCF7 and with SK-MEL-2 was > 100 µM (inactive) throughout.

The values are drawn from ChEMBL document CHEMBL1201862, “PubChem BioAssay data set” (2004).
